Data on 15 compounds can be found in patent publication US12178809B2, “Pyridinyl sulfonamide derivatives, pharmaceutical compositions and uses thereof” (Boehringer Ingelheim International GmbH, priority 2018, dated 2024).

pIC50: −log10 of the molar value. Where two headings read alike, the source gives them in different places.

Experiment [1] addresses human AOC3 enzyme (Homo sapiens (Human), UniProt Q16853). The experiment is described as follows: AOC3 biochemical assay (MAO-Glo). The source says:
The MAO-Glo™ Assay (commercially available from PROMEGA, #V1402) provides a sensitive method for the measurement of monoamine oxidase (MAO) activity (Valley, M. P. et al., 2006, Anal. Biochem. 359: 238-246) from a variety of tissues, biofluids or recombinant expressed or purified enzymes. As substrate a derivate of the beetle luciferin ((4S)-4,5-dihydro-2-(6-hydroxybenzothiazolyl)-4-thiazole-carboxylic acid) is used, which is oxidized at a primary amine moiety. After a spontaneous elimination and a catalyzed esterase reaction, the turnover of the luciferine by the luciferase is recorded as a signal of AOC3 activity.
An aliquot of 3 μL of the compound dilution is added to a 384 well plate (Optiplate, PS, flat bottom, white, PERKIN ELMER, #6007290) with a final DMSO concentration of 6.6%. Recombinant CHO cells, overexpressing the human (1500 cells/well), mouse (1000 cells/well) or rat (500 cells/well) AOC3 enzyme are diluted in reaction buffer and added in a volume of 15 μL to the wells. After incubation for 20 minutes at 37° C., 2 μL of MAO substrate (dissolved in DMSO at 16 mM, adjusted to assay concentration in reaction buffer to a final assay concentration of 20 μM) is added and further incubated for 60 minutes at 37° C. The turnover of the substrate is determined by the addition of 20 μL of the detection-mix which was generated by the addition of reconstitution buffer with esterase (PROMEGA, #V1402) to the luciferine detection reagent (PROMEGA, #V1402). After an incubation period of 20 minutes, the luminescent signal is measured with Envision 2104 Multilabel Reader (PERKIN ELMER).

Experiment [2] deals with AOC1 (Homo sapiens (Human), UniProt P19801). The experiment is described as follows: AOC1 biochemical assay (Amplex Red). As for the experimental part:
The Amplex® Red Assay (available from Thermo Fisher Scientific) provides a sensitive method for the detection of H2O2 generated during enzymatic reactions like the amine oxidation catalyzed by AOC1. The assay reagent is a colorless substrate (N-acetyl-3,7-dihydroxyphenoxazine) that reacts in a 1:1 stoichiometry with hydrogen peroxide (H2O2) to produce the fluorescent dye resorufin (7-hydroxyphenoxazin-3-one, excitation/emission maxima=570/585 nm).
An aliquot of 3 μL of the compound dilution is added to a 384 well plate (Optiplate, PS, flat bottom F, black, PERKIN ELMER, #6007270) in a DMSO concentration of 6.6%.
An AOC1 enzyme aliquot (#8297-AO-010, R&D Systems) is thawed on ice, diluted in reaction buffer and added in a volume of 7 μL to the wells to give a final assay concentration of 1 ng/well. After incubation of inhibitor and enzyme for 30 minutes at 37° C., the enzymatic reaction is started with the addition of 10 μL of Amplex® Red reaction mix (final assay concentration: 100 mM sodiumphosphate, 120 μM Amplex® Red reagent (#A22177 Molecular Probes), 1.5 U/mL Horseradish Peroxidase (#P8375 Sigma-Aldrich), 200 μM putrescine (#P7505 Sigma-Alrdich), 0.05% Pluronic F-127 (#P3000MP Sigma-Aldrich), pH 7.4, 37° C.).
After an incubation for 30 minutes at 37° C. the turnover of the substrate is determined directly (or after the addition of an excess of an amine-oxidase inhibitor) with a fluorescence reader (Ex 540 nm/Em 590 nm) like Envision 2104 Multilabel Reader (PERKIN ELMER).

In experiment [3] the target is AOC2 (Homo sapiens (Human), UniProt O75106). The experiment is described as follows: AOC2 biochemical assay (Amplex Red). As to the method: An aliquot of 5 μL of the compound dilution is added to a 96 well plate (flat bottom F, black, GREINER bio-one, #655900) in a DMSO concentration of 2%. […] Cells are cultured for 3 days in EMEM culture medium containing 10% FCS (#04-00-1A, Biological Industries). After washing twice with ice cold PBS, cells are lysed by mechanic homogenation and cleared supernatants are shock frozen in liquid nitrogen and stored at -80° C. […] An Aliquot of 45 μL is added to the compound dilution and incubated for 30 min at 37° C. The enzymatic reaction is started with the addition of 50 μL of Amplex® Red reaction mix (final assay concentration: 100 mM sodiumphosphate, 120 μM Amplex® Red reagent (#A22177 Molecular Probes), 1.5 U/mL Horseradish Peroxidase (#P8375 Sigma-Aldrich), 2 mM phenylethylamine (#[…] Sigma-Aldrich), 0.05% Pluronic F-127 (#P3000MP Sigma-Aldrich), pH 7.4, 37° C.). The turnover per time of the substrate is determined directly with a fluorescence reader (Ex 540 nm/Em 590 nm) like Envision 2104 Multilabel Reader (PERKIN ELMER) for 60 min.
Chain of AOC2 (O75106 whole entry): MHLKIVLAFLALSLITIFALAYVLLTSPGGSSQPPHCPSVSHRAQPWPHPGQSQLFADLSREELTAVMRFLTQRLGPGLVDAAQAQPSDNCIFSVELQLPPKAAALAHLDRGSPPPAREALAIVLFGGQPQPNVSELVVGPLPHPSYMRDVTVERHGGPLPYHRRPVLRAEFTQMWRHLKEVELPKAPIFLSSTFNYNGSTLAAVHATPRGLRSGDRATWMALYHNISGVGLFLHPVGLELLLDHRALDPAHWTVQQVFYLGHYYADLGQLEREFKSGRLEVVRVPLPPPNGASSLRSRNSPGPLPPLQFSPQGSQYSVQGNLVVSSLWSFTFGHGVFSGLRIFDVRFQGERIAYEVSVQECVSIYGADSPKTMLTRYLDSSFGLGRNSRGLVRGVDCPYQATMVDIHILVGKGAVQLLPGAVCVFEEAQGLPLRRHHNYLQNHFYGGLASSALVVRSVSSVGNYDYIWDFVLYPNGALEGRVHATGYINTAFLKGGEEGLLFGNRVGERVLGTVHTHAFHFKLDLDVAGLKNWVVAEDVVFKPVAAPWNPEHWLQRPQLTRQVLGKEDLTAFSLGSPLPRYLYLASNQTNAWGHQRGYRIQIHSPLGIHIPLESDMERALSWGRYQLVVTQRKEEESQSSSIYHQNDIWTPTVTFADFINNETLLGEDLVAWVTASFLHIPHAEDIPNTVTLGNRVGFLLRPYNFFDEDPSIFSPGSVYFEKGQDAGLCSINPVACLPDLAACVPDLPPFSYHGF

The mark [4] stands for this setting: comparison table, read-out: IC50 AOC3.
[5] abbreviates: comparison table, read-out: IC50 AOC1.

Chain of AOC1 (P19801 20-751): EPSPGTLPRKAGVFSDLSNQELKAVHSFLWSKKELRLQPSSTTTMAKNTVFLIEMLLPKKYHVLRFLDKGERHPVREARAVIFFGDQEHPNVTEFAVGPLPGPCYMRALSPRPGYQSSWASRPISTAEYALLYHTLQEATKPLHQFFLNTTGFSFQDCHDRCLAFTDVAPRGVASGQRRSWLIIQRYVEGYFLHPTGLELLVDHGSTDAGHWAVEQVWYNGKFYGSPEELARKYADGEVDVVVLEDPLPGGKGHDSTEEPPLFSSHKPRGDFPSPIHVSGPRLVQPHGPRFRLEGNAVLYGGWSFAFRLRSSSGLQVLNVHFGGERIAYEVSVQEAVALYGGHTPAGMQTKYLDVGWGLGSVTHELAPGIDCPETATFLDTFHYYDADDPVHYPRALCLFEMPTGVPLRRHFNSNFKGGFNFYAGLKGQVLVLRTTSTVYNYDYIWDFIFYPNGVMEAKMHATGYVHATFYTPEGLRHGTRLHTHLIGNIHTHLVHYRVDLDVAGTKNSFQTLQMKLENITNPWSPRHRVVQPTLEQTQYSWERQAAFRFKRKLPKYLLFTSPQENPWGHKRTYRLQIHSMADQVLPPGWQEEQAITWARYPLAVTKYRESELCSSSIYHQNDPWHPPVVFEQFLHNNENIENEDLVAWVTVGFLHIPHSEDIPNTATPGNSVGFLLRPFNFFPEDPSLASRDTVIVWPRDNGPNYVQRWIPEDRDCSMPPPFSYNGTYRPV
Chain of human AOC3 enzyme (Q16853 whole entry): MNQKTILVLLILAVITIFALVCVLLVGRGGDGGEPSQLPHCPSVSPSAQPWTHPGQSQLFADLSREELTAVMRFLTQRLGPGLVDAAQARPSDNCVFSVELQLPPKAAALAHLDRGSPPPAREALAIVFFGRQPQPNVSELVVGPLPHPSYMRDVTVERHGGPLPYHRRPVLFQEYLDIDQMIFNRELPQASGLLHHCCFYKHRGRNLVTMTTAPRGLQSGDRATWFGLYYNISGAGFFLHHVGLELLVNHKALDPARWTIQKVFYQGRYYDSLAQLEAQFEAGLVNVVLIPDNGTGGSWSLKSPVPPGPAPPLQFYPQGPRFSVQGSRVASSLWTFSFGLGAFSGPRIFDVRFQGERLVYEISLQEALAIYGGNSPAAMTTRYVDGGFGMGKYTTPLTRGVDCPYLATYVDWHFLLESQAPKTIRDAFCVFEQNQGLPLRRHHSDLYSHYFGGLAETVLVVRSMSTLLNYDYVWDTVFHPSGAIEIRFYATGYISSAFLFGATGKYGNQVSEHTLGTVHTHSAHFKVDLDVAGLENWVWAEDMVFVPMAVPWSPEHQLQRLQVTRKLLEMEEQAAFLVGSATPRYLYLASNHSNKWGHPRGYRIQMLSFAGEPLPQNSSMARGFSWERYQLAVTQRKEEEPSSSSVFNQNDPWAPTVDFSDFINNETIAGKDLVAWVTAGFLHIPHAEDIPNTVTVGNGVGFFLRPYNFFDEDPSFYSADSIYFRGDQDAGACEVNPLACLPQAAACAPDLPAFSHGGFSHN

As a reminder, the pIC50 is the negative decadic logarithm of the IC50, by convention in mol/L. For `NC/C(=C\F)COc1cnc(N2CCC(O)CC2)nc1` [Example 2 of WO 2018/027892, reference compound], the results for the pIC50 in experiment [1] (setting [4]) and in experiment [2] (setting [5]) were 7.70 and 6.57, respectively.

On to `NC/C(=C\F)COc1ccc(S(=O)(=O)N2CC[C@H](C(N)=O)C2)cn1` [Example 49], for which the pIC50 in experiment [1] (read-out: AOC3 IC50) is 7.68; in experiment [2] (read-out: AOC1 IC50), less than 4.30; in experiment [3] (read-out: AOC2 IC50), 7.30.

Take `NC/C(=C\F)COc1cnc(N2CC[C@H](O)C2)nc1` [Example 6 of WO 2018/027892, reference compound]: the pIC50 in experiment [1] (setting [4]) was 7.23; in experiment [2] (setting [5]), 5.93; in experiment [3] (comparison table, read-out: IC50 AOC2), 5.95.

`NC/C(=C\F)COc1ccc(S(=O)(=O)N2CCC(N3CCNC3=O)CC2)cn1` [Example 04]: the pIC50 in experiment [1] (read-out: AOC3 IC50) was 7.31; in experiment [2] (read-out: AOC1 IC50), less than 4.30; in experiment [3] (read-out: AOC2 IC50) it was 6.09.

Turning to `NC/C(=C\F)COc1ccc(S(=O)(=O)N2CCC(CC(N)=O)CC2)cn1` [Example 60], the pIC50 was 7.68 in experiment [1] (read-out: AOC3 IC50), less than 4.30 in experiment [2] (read-out: AOC1 IC50) and 7.04 in experiment [3] (read-out: AOC2 IC50).

For the compound `NC/C(=C\F)COc1ccc(S(=O)(=O)N2CCC(O)(C(F)(F)F)CC2)cn1` [Example 50], the figures for the pIC50 in experiment [1] (read-out: AOC3 IC50), in experiment [2] (read-out: AOC1 IC50) and in experiment [3] (read-out: AOC2 IC50) were 7.70, less than 4.30 and 7.62, respectively.

As a reminder, the IC50 is the midpoint of a concentration-inhibition curve. In the case of `NC/C(=C\F)COc1ccc(S(=O)(=O)N2CC[C@H](O)C2)cc1` [Reference compound B, reference compound], the pIC50 in experiment [1] (setting [4]) was 7.57. Also, in experiment [2] (comparison table, unit μM, read-out: IC50 AOC1), the IC50 is greater than 50 µM.

As to `CN(C)C(=O)C1CCN(S(=O)(=O)c2ccc(OC/C(=C/F)CN)nc2)CC1` [Example 12], the pIC50 in experiment [1] (read-out: AOC3 IC50) is 7.42; in experiment [2] (read-out: AOC1 IC50) it was less than 4.30; in experiment [3] (read-out: AOC2 IC50) it was 6.41.

`CNC(=O)[C@H]1CCN(S(=O)(=O)c2ccc(OC/C(=C/F)CN)nc2)C1` [Example 29]: the pIC50 in experiment [2] (read-out: AOC1 IC50) is less than 4.30; in experiment [3] (read-out: AOC2 IC50) it was 6.82.

`COCCNC(=O)[C@H]1[C@@H]2CN(S(=O)(=O)c3ccc(OC/C(=C/F)CN)nc3)C[C@@H]21` [Example 66]: the figures for the pIC50 in experiment [1] (read-out: AOC3 IC50) and in experiment [2] (read-out: AOC1 IC50) were 7.64 and 4.51, respectively.

For the compound `CC(=O)N[C@H]1CCCN(S(=O)(=O)c2ccc(OC/C(=C/F)CN)nc2)C1` [Example 06], the values for the pIC50 in experiment [2] (read-out: AOC1 IC50) and in experiment [3] (read-out: AOC2 IC50) were less than 4.30 and 6.23, respectively.

Regarding `NC/C(=C\F)COc1ccc(S(=O)(=O)N2CCC(C(=O)NC3CC3)CC2)cn1` [Example 63], the pIC50 in experiment [1] (read-out: AOC3 IC50) was 7.72; in experiment [2] (read-out: AOC1 IC50) it was less than 4.30.

For the compound `NC/C(=C\F)COc1ccc(S(=O)(=O)N2CCC(C(=O)NCCO)CC2)cn1` [Example 62], the pIC50 in experiment [1] (read-out: AOC3 IC50) was 7.74; in experiment [2] (read-out: AOC1 IC50), less than 4.30.

`CC(F)(F)CNC(=O)C1CCN(S(=O)(=O)c2ccc(OC/C(=C/F)CN)nc2)CC1` [Example 65]: the pIC50 in experiment [1] (read-out: AOC3 IC50) was 7.96; in experiment [2] (read-out: AOC1 IC50) it was less than 4.30.

As to `CNC(=O)[C@@H]1CCN(S(=O)(=O)c2ccc(OC/C(=C/F)CN)nc2)C1` [Example 24], the pIC50 in experiment [2] (read-out: AOC1 IC50) was less than 4.30; in experiment [3] (read-out: AOC2 IC50), 6.78.
